# Laboratory results: patent publication US8790898B2 (priority 2008, dated 2014)
# Values joined by “and” are separate entries in the source; they are usually repeats but may differ in a detail not shown here. Equal values may be shown once. “Also recorded” adds a separate entry of the source. Read-outs that look alike come from different tables or passages of the source.
# Legend:
# HIV-1 BZ 167 [1] = assay type: cell-based
# [2] = tested on: CBD1 peptide and CBD1- and CBM-based peptides; parameters: species or system BALB/c mice; settings: mouse, in vivo; for ELISA titer against C17K / IgG2/IgG1 ratio / ELISA C17K / ELISA K23M / ELISA K24W / ELISA K27M / ELISA K27W / ELISA K27W(G) / ELISA K30W(G) / ELISA against the Immunogen (OD) / ELISA p6362: sc; as to ELISA C17K: test concentration or dose not given here; as to ELISA K24W: test concentration or dose not given here; as to ELISA K27W(G): test concentration or dose not given here; as to ELISA K27W: test concentration or dose not given here; as to ELISA K30W(G): test concentration or dose not given here; as to ELISA against the Immunogen (OD): test concentration or dose not given here; as to ELISA p6362: test concentration or dose not given here
# [3] = tested on: IgG antibodies in human HIV-1 positive sera; assay type: binding; settings: sera at 1000-fold dilution
# [4] = target: CBD1, C13K, CBD1/A and C10M peptides and the CBD1-KLH Construct (Human immunodeficiency virus type 1 group M subtype B, UniProt P04578, E630Q/H625N/T626M); settings: guinea pig, in vivo
# [5] = target: CBD1, C13K, CBD1/A and C10M peptides and the CBD1-KLH Construct (Human immunodeficiency virus type 1 group M subtype B, UniProt P04578); settings: guinea pig, in vivo
# [6] = tested on: CBD1, C13K, CBD1/A and C10M peptides and the CBD1-KLH Construct; settings: guinea pig, in vivo
# HIV-1 BZ 167 [7] = assay type: cell-based; settings: for Inhibition of HIV-infection: 50-fold dilution of guinea pig immune sera (bleeds S5), HIV-1 BZ 167, p24 at 5 days post infection
Substance,% inhibition of HIV-1 at 200-fold dilution (HIV-1 BZ 167 [1]),Neutralizing activity ID50 (HIV-1 BZ 167 [1]),ELISA titer against C17K [2],% Inhibition of HIV-1 infection at 200-fold dilution (HIV-1 BZ 167 [1]),Neutralizing activity ID50 Fold-Dilution (HIV-1 BZ 167 [1]),ELISA C17K [2],ELISA K23M [2],ELISA K24W [2],ELISA K27M [2],ELISA K27W [2],ELISA K27W(G) [2],ELISA K30W(G) [2],ELISA against the Immunogen (OD) [2] [OD],ELISA p6362 [2],other results
KRWIILGLNKIVRMYKKIWNNMTWMQWDK [K29K],62%,250-fold,1.80 ± 0.62,,,,,,,,,,,,IgG2/IgG1 ratio [2]: 4.95
KRWIILGLNKIVRMYKKIWNNMTWMQW [K27W],,,,65%,300-fold,0.24 ± 0.12,<0.20,<0.20,<0.20,1.49 ± 0.75,<0.20,2.25 ± 0.20,1.64,<0.20,
AQYIKANSKFIGITELKKCSLEQIWNNMTWMQWDK (AQYIKANSKFIGITELKKCSLEQIWNNMTWMQWDK) [A35K],42%,150-fold,0.61 ± 0.35,,,,,,,,,,,,"difference in the degree of neutralization of HIV-1 infection versus anti-CBD1 immune sera (HIV-1 BZ 167 [1]): less than 2 fold; production of anti-CBD1 peptide antibodies, fold lower compared to the CBD1 peptide alone [2]: at least 3 fold; IgG2/IgG1 ratio [2]: 1.56"
KRWIILGLNKIVRMYKKIWNNM [K23M],,,,11%,100-fold,<0.20,0.53,<0.20,<0.20,<0.20,<0.20,<0.20,0.66,<0.20,immunized mice that developed peptide specific antibodies [2]: 1 out of the five and ^aOnly 1 out of five mice immunized with the K23M peptide developed anti-K23M specific antibodies.
AQYIKANSKFIGITELKKIWNNMTWMQWDK (AQYIKANSKFIGITELKKIWNNMTWMQWDK) [A30K],45%,150-fold,0.83 ± 0.44,,,,,,,,,,,,IgG2/IgG1 ratio [2]: 3.24
C-S-L-E-Q-I-W-N-N-M (CSLEQIWNNM) [C10M],,,,No Effect,No Effect,,,,,,,,<0.10,,
KQIINMWQVVGKAMYAKKCKSLEQIWNNMTWMQWDK (KQIINMWQVVGKAMYAKKCKSLEQIWNNMTWMQWDK),45%,150-fold,1.07 ± 0.33,,,,,,,,,,,,
SLEQIWNNMTWMQWDK [CBD1 peptide 618-633],,,,,,,,,,,,,,,"HIV-1 positive sera reacting in ELISA / sera tested ([3]; Brazil, n = 22): 1/22; mean OD 450 nm ± S.D. of reacting sera ([3]; Brazil, n = 22): 0.75 OD; HIV-1 positive sera reacting in ELISA / sera tested ([3]; Chili, n = 24): 1/24; mean OD 450 nm ± S.D. of reacting sera ([3]; Chili, n = 24): 0.30 OD; HIV-1 positive sera reacting in ELISA / sera tested ([3]; France, n = 81): 4/81; mean OD 450 nm ± S.D. of reacting sera ([3]; France, n = 81): 0.33 ± 0.05 OD"
KLH-CSLEQIWNNMTWMQWDK [KLH-C17K],,,,,,,,,,,,,,,ELISA CBD1 (titer) [4]: <200; ELISA C10M (titer) [5]: <200; ELISA C13K (titer) [6]: <200; ELISA CBD1/A (titer) [6]: <200; ELISA KLH (titer against the CBD1-KLH construct) [6]: <200; Inhibition of HIV-infection (HIV-1 BZ 167 [7]): No Effect
C-S-L-E-Q-I-A-N-N-M-T-A-M-Q-A-D-K (CSLEQIANNMTAMQADK) [CBD1/A],,,,,,,,,,,,,,,"ELISA CBD1 (titer) [4]: 20,000 and 16,000; ELISA C10M (titer) [5]: 16,000; ELISA C13K (titer) [6]: 2,000 and 1,000; ELISA CBD1/A (titer) [6]: 128,000; ELISA KLH (titer against the CBD1-KLH construct) [6]: <200; Inhibition of HIV-infection (HIV-1 BZ 167 [7]): no apparent neutralizing activity; also recorded: No Effect; Inhibition of HIV infection (HIV-1 BZ 167 [7]; 100 fold dilution of guinea pig immune serum (bleeds S5), HIV-1 BZ 162, human CD4+ T lymphocytes): did not inhibit"
KRWIILGLNKIVRMYKKCKSLEQIWNNMTWMQWDK,51%,200-fold,1.72 ± 0.46,,,,,,,,,,,,
KRWIILGLNKIVRMYKKCSLEQIWNNM [K27M],,,,65%,250-fold,,,,,,,,1.38,,
KRWIILGLNKIVRMYGPGPGIWNNMTWMQW [K30W(G)],,,,81%,450-fold,<0.20,<0.20,<0.20,<0.20,<0.20,<0.20,1.23 ± 0.55,1.45,<0.20,
C-I-W-N-N-M-T-W-M-Q-W-D-K (CIWNNMTWMQWDK) [C13K],None,None,0.03 ± 0.02,,,,,,,,,,,,ELISA CBD1 (titer) [4]: <200; ELISA C10M (titer) [5]: <200; ELISA C13K (titer) [6]: 400 and 200; ELISA CBD1/A (titer) [6]: <200; ELISA KLH (titer against the CBD1-KLH construct) [6]: <200; Inhibition of HIV-infection (HIV-1 BZ 167 [7]): No Effect
RGDAQYIKANSKFIGITELKKIWNNMTWMQWDK (RGDAQYIKANSKFIGITELKKIWNNMTWMQWDK) [R33K],64%,200-fold,1.66 ± 0.37,,,,,,,,,,,,IgG2/IgG1 ratio [2]: 4.05
KRWIILGLNKIVRMYGPGPGIWNNMTW [K27W(G)],,,,16%,100-fold,<0.20,<0.20,<0.20,<0.20,<0.20,0.66 ± 0.22,<0.20,0.73,<0.20,
CKSLEQIWNNMTWMQWDK [C18K],65%,250-fold,1.75 ± 0.60,,,,,,,,,,,,
KRWIILGLNKIVRMYKKIWDNMTWMEW [K27W-2],,,,<10%,100-fold,<0.20,<0.02,<0.02,<0.20,0.22 ± 0.08,2.01 ± 0.73,<0.20,2.01,<0.20,
KRWIILGLNKIVRMYKKIWNNMTW [K24W],,,,88%,450-fold,<0.20,0.45 ± 0.40,1.41 ± 0.55,0.87 ± 0.15,0.21 ± 0.15,1.88 ± 0.66,<0.20,1.55,<0.20,
